Holding throughout (assay): Antiviral activity assay in Vero E6 cells, qRT-PCR of supernatant
Common to all, as to type: cell-based

In assay [1] the test system is SARS-CoV-2 Gamma variant (hCoV-19/Japan/TY7-501/2020). The conditions noted are these: for IC50: Severe acute respiratory syndrome coronavirus 2, Vero C1008, Gamma, compound concentration (for 5-ALA/SFC the 5-ALA concentration, ratio 4:1).
Assay [2] deals with SARS-CoV-2 Alpha variant (hCoV-19/Japan/QK002/2020). Particulars: Severe acute respiratory syndrome coronavirus 2, Vero C1008, compound concentration (for 5-ALA/SFC the 5-ALA concentration, ratio 4:1).
Assay [3] deals with SARS-CoV-2 Beta variant (hCoV-19/Japan/TY8-612/2020). Particulars: Severe acute respiratory syndrome coronavirus 2, Vero C1008, compound concentration (for 5-ALA/SFC the 5-ALA concentration, ratio 4:1).
For assay [4], the system named is SARS-CoV-2 Delta variant (hCoV-19/Japan/TY11-330-P1//2021). Particulars: for IC50: Severe acute respiratory syndrome coronavirus 2, Vero C1008, Delta, compound concentration (for 5-ALA/SFC the 5-ALA concentration, ratio 4:1).

Where only a bound is given, the exact number is not on record here.

Broadly, the IC50 is the concentration that gives 50% inhibition. In the case of `NCC(=O)CCC(=O)O` [5-ALA, 5-aminolevulinic acid], the viral inhibition result in assay [1] is listed as “no viral inhibition”; in assay [4] it was “little viral inhibition”. The IC50 in assay [1] was greater than 2000 µM; in assay [2] it was 104 µM; in assay [3], 1590 µM; in assay [4], greater than 2000 µM.
For `CCC(CC)COC(=O)[C@H](C)N[P@](=O)(OC[C@H]1O[C@@](C#N)(c2ccc3c(N)ncnn23)[C@H](O)[C@@H]1O)Oc1ccccc1` [remdesivir, Remdesivir], the IC50 in assay [1], in assay [2], in assay [3] and in assay [4] was 0.1 to 1 µM each time.

(Values after article PMC8739347 (Tropical Medicine and Health, 2022).)
